US8349991B2, “Amphiphilic polymers and methods of use thereof” (Massachusetts Institute of Technology, priority 2005, dated 2013)
Entries after “also recorded” stand apart in the source; their conditions may differ. Where no end group is shown, it is not given here. The star is where a group is joined. Acm = CC(=O)NC*

Columns and labels:
[1] = test system: INS-1 cells; assay: Cellular cytotoxicity by MTS after exposure to polymers and reagents; format: cell-based; conditions: 1 mg/mL polymer or 0.05 mg/mL dye, 37° C., up to 48 hours post-exposure
Protocol: Cellular cytotoxicity following exposure to the polymers and reagents: INS-1 cells were incubated with the polymers and/or reagents (1 mg/mL polymer or 0.05 mg/mL dye) at 37° C., and cellular viability was determined by MTS (FIG. 5).

[2] = test system: human control uMUC-1-negative tumor and normal cell lines; assay: Cell binding assay with 125I-labeled CLIO-EPPT; format: cell-based; conditions: 1 hour incubation
Excerpt: (§1) FIG. 7 depicts a crosslinked iron oxide (CLIO)-EPPT multi-modal imaging probe. (A) The core protein of the MUC-1 tumor antigen. The immunodominant region of the tandem repeat is recognized by the EPPT1 peptide derived from an ASM2 monoclonal antibody (45). (B) Synthesis (left) and scheme of the probe (right). […] Left, overlay of the bright field and FITC channel; middle, overlay of the bright field and Cy5.5 channel; right, overlay of the FITC and Cy5.5 channels. […] Magnification bars=10 μm.
(§2) Cell binding assays (FIG. 7D) were carried out with a variety of human uMUC-1-positive tumor cell lines: ZR-75-1 (breast), BT-20 (breast), HT29 (colon), CAPAN-2 (pancreas), LS174T (colon), and ChaGo-K-1 (lung) as well as human control uMUC-1-negative tumor and normal cell lines.

[3] = test system: human uMUC-1-positive tumor cell lines; assay: Cell binding assay with 125I-labeled CLIO-EPPT; format: cell-based
Excerpt: as §1, §2

[4] = test system: uMUC-1-negative (U87) tumors; assay: In vivo MR and NIRF imaging of tumor-bearing animals; set-up: species or system mice; conditions: control tumors
Protocol: (§3) (B) White light (left), near-infrared fluorescent (NIRF) (middle) images, and a color-coded map (right) of mice bearing bilateral underglycosylated mucin-1 antigen uMUC-1-negative (U87) and uMUC-1-positive (LS174T) tumors. NIRF imaging was performed immediately after the MRI session. […] (D) Dual channel fluorescence microscopy of the frozen LS 174T tumor section. Green channel fluorescence from the FITC-labeled EPPT peptide (left) colocalized with Cy5.5 fluorescence derived from Cy5.5-labeled cross-linked iron oxides (middle). […] Magnification bar=10 μm.
(§4) In vivo ^1H-MR imaging was performed on animals bearing bilateral uMUC-1-positive and uMUC-1-negative tumors before and 24 hours after probe injection. […] The same animals were subjected to optical imaging immediately after the MR-imaging session. […] Fluorescence microscopy of excised tumors and muscle tissue gave results consistent with NIRF images. From biodistribution studies with ^125I-CLIO-EPPT, on average uMUC-1-positive tumors accumulated 3.4 times more of the probe than uMUC-1-negative tumors.

[5] = test system: uMUC-1-positive (LS174T) tumors; assay: as above; set-up: species or system mice
Protocol: as §3, §4

[6] = Dynamic light scattering of CLIO-EPPT probes; format: physicochemical
Excerpt: To extend these studies using perfluoro labeled polymer, the same FITC-labeled EPPT1 peptide was used. […] The study with the CLIO-EPPT nanoparticles established test procedures which will be used.

[7] = test system: uMUC-1-positive tumors versus uMUC-1-negative tumors; set-up: species or system mice; conditions: mouse, in vivo
Protocol: as §4

[8] = test system: adenocarcinoma cell lines (BT-20, CAPAN-2, ChaGo-K-1, HT-29, LS174T); assay: In vitro specificity of CLIO-EPPT (flow cytometry, fluorescence microscopy); format: cell-based, human
Excerpt: as §1
(§5) In vitro specificity of CLIO-EPPT for adenocarcinomas was further characterized by flow cytometric analysis of probe binding to selected adenocarcinoma and control cell lines (FIG. 7E). […] Fluorescence microscopy experiments, in which adenocarcinoma and control cells were incubated with the probe, confirmed the fluorescence-activated cell sorting data.

[9] = test system: control uMUC-1-negative cell line U87; assay: as above; format: cell-based, human
Excerpt: as §1, §5

[10] = test system: INS cells; conditions: 0.2 mg/mL, 37° C.
[11] = test system: Cells; conditions: 0.2 mg/mL, 5 hr, 37° C.
[12] = target: underglycosylated mucin-1 antigen (uMUC-1) (Homo sapiens, UniProt P15941); conditions: read-out: binding constant Kd; cited from earlier work
Sequence of underglycosylated mucin-1 antigen (uMUC-1) (P15941 24-1255): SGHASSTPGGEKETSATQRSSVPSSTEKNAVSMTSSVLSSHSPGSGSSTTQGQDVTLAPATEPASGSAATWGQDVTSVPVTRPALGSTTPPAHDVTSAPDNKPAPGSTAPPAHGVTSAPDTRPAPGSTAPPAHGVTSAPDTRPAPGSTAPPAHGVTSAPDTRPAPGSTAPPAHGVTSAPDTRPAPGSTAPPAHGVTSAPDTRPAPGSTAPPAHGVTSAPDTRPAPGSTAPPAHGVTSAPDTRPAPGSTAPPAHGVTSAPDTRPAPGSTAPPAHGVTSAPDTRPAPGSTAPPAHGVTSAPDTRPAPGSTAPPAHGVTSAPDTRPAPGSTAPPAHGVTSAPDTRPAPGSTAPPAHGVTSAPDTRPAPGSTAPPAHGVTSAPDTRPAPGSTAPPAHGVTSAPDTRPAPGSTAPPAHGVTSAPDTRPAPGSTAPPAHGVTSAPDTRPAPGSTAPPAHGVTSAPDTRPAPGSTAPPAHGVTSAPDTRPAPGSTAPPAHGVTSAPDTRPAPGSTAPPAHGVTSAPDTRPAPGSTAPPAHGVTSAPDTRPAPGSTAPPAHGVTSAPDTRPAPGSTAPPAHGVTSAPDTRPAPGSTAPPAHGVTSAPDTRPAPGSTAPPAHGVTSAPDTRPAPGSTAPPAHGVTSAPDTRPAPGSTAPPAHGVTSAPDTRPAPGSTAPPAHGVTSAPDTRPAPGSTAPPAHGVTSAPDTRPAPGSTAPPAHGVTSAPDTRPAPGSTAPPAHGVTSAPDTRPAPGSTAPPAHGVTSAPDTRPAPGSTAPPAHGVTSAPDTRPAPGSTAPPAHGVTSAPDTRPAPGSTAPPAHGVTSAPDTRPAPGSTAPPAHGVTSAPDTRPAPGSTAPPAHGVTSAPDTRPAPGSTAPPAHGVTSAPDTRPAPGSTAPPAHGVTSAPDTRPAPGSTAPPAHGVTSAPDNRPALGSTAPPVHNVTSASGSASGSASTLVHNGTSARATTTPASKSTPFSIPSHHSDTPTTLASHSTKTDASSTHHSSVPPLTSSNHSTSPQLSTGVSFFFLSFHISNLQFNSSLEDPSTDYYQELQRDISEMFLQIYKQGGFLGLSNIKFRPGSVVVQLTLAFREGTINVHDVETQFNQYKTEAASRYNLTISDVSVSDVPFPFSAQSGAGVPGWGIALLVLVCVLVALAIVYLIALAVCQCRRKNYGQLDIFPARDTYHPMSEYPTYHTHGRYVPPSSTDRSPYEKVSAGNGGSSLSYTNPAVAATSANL

[13] = Acute oral toxicity testing (LD50); conditions: C57BI/6, mouse, in vivo
Protocol: Acute oral toxicity testing of intact nanospheres and individual components was carried out to determine the LD50 (median lethal dose) with C57BI/6 (Table 2).

With `CCN(CC)c1ccc2c(-c3ccccc3C(=O)O)c3ccc(=[N+](CC)CC)cc-3oc2c1` [Rhodamine, Rhodamine B] the “cytotoxicity (cellular viability by MTS)” value [1] was “cytotoxic effects were readily observed”.

For “CLIO-EPPT: cross-linked iron oxide nanoparticle carrying Cy5.5 dye and FITC-labeled EPPT1 peptides on the dextran coat; radioiodinated for binding and biodistribution (YC(Acm)AREPPTRTFAYWG-{K(FITC)-Lys}; not fully specified; printed as Y-C(ACM)-A-R-E-P-P-T-R-T-F-A-Y-W-G-K(FITC)K; also: conjugated to CLIO iron oxide nanoparticle with Cy5.5 dye, radioiodinated)”, the “nanoparticle uptake versus uMUC-1-positive tumor cell lines” value [2] was “much lower nanoparticle uptake”, the “CLIO-EPPT nanoparticles bound per cell” value ([3]; 125I-labeled, 1 hour incubation) was 10^7-10^8 nanoparticles per cell and the “accumulation versus uMUC-1-negative tumor or normal cells” value ([3]; cell binding assay, P<0.05) was “significantly more”. The NIRF signal [4] was “no significant signal”, the “dual channel fluorescence microscopy of excised tumors” value [4] was “no signal” and the “decrease in signal intensity of T2-weighted MR images” value ([4]; 24 hours after probe injection) was 13-18%. The “decrease in signal intensity of T2-weighted MR images” value ([5]; LS174T tumors, 24 h after probe injection) was 52%, the “dual channel fluorescence microscopy of excised tumors” value ([5]; uMUC-1-positive tumors) was “colocalization of FITC and Cy5.5 signals” and the NIRF signal ([5]; uMUC-1-positive tumors, immediately after MR-imaging session) was “high intensity NIRF signal; also recorded: strong NIRF signal”. For the same compound, the hydrodynamic diameter [6] was “about 36 nm”, the “probe accumulation in uMUC-1-positive tumors relative to uMUC-1-negative tumors” value [7] was 3.4 times and the “probe binding by flow cytometry” value [8] was “bound the probe; also recorded: a shift in fluorescence in the FLI and FL4 channels”. For the same compound, the “staining by fluorescence microscopy” value ([8]; FITC and Cy5.5 channels) was “stained strongly; also recorded: colocalization of the FITC and Cy5.5 signal”, the “staining by fluorescence microscopy” value ([9]; U87, FITC or Cy5.5 channels) was “no fluorescence was observed” and the “probe binding by flow cytometry” value ([9]; control cell line U87) was “no cell binding; also recorded: no shift”.

For `COc1cccc2c1C(=O)c1c(O)c3c(c(O)c1C2=O)C[C@@](O)(C(=O)CO)C[C@@H]3O[C@H]1C[C@H](N)[C@H](O)[C@H](C)O1` [doxorubicin], the “rate of cell death (MTS)” value [10] was “comparable rate of cell death” and the “intracellular localization (confocal microscopy)” value [11] was “largely confined to the nucleus”.

For “synthetic peptide YCAREPPTRTFAYWG (SEQ ID NO: 1) derived from CDR3 Vh region of monoclonal antibody ASM2 (not fully specified (C-terminus); listed as Homo sapiens) [EPPT1]”, the Kd [12] is given as 20 µM.

`N[C@@H](CC(=O)O)C(=O)O` [Aspartic Acid] showed an LD50 [13] of 20000 mg/kg.
